Test results taken from patent publication US9862684B2, “Modulation of K2P channels” (The Regents of the University of California, priority 2013, dated 2018).

Key:
K2P2.1 (TREK-1)-3G [1] = target: T1, K2P2.1 (TREK-1)-3G (Mus musculus, UniProt P97438, D309G/I307G); experiment: Two-electrode voltage clamp, Xenopus oocytes, triple glycine mutant uncoupling Ct; assay type: cell-based, Murine; details: 3G mutant
T1 sequence (P97438 1-426 I307G/D309G): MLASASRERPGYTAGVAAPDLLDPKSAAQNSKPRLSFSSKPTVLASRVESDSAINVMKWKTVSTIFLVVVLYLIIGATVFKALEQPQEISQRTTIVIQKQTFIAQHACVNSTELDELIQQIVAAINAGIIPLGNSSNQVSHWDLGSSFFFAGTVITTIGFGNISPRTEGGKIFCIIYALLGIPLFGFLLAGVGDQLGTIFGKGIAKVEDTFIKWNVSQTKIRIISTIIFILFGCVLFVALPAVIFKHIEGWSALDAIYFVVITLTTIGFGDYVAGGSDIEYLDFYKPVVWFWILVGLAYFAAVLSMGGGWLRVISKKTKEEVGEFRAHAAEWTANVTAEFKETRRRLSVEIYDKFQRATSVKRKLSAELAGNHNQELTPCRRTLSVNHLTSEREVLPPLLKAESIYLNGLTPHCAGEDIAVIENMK
Procedure: (§1) I-V curves were measured by two-electrode voltage clamp of Xenopus oocytes in b, 90 mM [K^+]o. or c-e, 2 mM [K^+]o. […] Data (were measured at 20 mV (90 mM [K^+]o) or 0 mV (2 mM [K^+]o), normalized to basal channel activity, and fitted to the Hill equation. Error bars indicate s.e., n≧6, N≧2.
(§2) Murine K2P channels were cloned into pGEMHE/pMO {Bagriantsev, 2011}, IRES-GFP (Invitrogen), or pYES2-MET25 (high copy 2μ, URA3) {Minor, 1999} for expression in oocytes, HEK-293T cells, and yeast, respectively, using standard molecular biology procedures, and verified by DNA sequencing.
(§3) Two-electrode voltage clamp recordings were performed from defolliculated stage V-VI Xenopus oocytes 24-48 hours after injection with 0.015-6.0 ng cRNA, using microelectrodes (0.3-3.0 MΩ) filled with 3M KCl. Data was acquired using the GeneClamp 500B (MDS Analytical Technologies) amplifier controlled by the pClamp software (Molecular Devices), and digitized at 1 kHz using Digidata 1332A (MDS Analytical Technologies). Recording solutions (mM): 2K (96 NaCl, 2 KCl, 1.8 CaCl2, 2 MgCl2), 90K (90 KCl, 8 NaCl, 1.8 CaCl2, 2 MgCl2), were buffered 5 mM HEPES pH 7.4. For K2P recordings, currents we elicited by a 1 second long ramp from −150 to +50 mV from a holding potential of −80 mV (2K), or −100 to +50 mV from a holding potential of 0 mV (90K). […]

K2P2.1 (TREK-1)-3G [2] = target: T2, K2P2.1 (TREK-1)-3G (Mus musculus, UniProt P97438, I307G/D309G); experiment: as above; assay type: cell-based, Murine; details: 3G mutant
T2 sequence (P97438 1-426 I307G/D309G): T1 sequence (P97438 1-426 I307G/D309G)
Procedure: as §1, §2, §3

## CC1(C)c2cc(Cl)ccc2N(CCc2nnn[nH]2)c2ccc(Cl)cc21 [ML67-33, 2,7-dichloro-9,9-dimethyl-10-[2-(1H-tetrazol-5-yl)ethyl]acridine]
K2P2.1 (TREK-1)-3G [1]
  EC50: 49.4 ± 0.1 µM
K2P2.1 (TREK-1)-3G [2]
  Emax (fold): 12.9±1.0 fold
